Key:
[1] = chronic αT supplementation; cited from earlier work
[2] = 50 mg/kg supplement, 5.3 years follow-up; cited from earlier work
[3] = plasma concentrations of tocopherols and 5-NO2-γ-tocopherol in volunteers; format: in vivo, human; conditions: mean ± SEM
From the text: Smoking is recognized as a major contributing factor to heart disease and γ-T reportedly decreases more than α-T in smokers. Hypertension is also a strong risk factor for heart disease. […] Seven subjects indicated a chronic hypertensive condition. As outlined in Table I, γ-tocopherol tended to decrease in hypertensive subjects while nitration products tended to increase in both smokers and hypertensive subjects. This was the trend regardless of whether the tocopherol concentrations were normalized to plasma triglycerides (Table I).

[4] = test system: platelets; test: platelet aggregation in vitro (PRP, aggregometer); format: cell-based, human; conditions: 500 μM α-tocopherol or 50 μM γ-tocopherol, 1 H preincubation
Method: […] inhibits platelet aggregation in vitro and in vivo, apparently through antagonism of protein kinase C (PKC) (60-63). Concentrations of αT necessary to inhibit aggregation in vitro are on the order of 500 μM (60-63), or approximately 10-fold higher than achieved in vivo. The concentration difference between in vitro and in vivo efficacy has been rationalized on the basis of incomplete tocopherol incorporation into membranes during in vitro incubation (63). Nonetheless, subjects supplemented with oral αT have diminished platelet aggregation (63). We therefore sought to investigate the ability of γ-tocopherol to inhibit platelet aggregation. PRP was obtained from two volunteers. Platelets were stimulated to aggregate with ADP, thrombin receptor activating peptide (TRAP) or the PKC agonist phorbol myristyl acetate (PMA) and aggregation was measured using a 4-channel clinical aggregometer. Specific platelet samples were preincubated with vehicle, αT, γT or 5-NO2-γ-tocopherol for 1 H prior to stimulation. Tocopherol concentrations were set at 10-fold excess to average PRP levels based on the precedent of previous in vitro aggregation experiments that used αT as an inhibitor (60-63).

[5] = test system: αKGDH; test: heart αKGDH activity after tocopherol supplementation, with or without LPS challenge; format: in vivo, rat; conditions: animals not subjected to LPS stress; 15 mg tocopherol I.P. over 30 days
Method: Rats were injected with 15 mg of tocopherol over the first 1 month of life; specific groups were then challenged with a septic dose of LPS and heart αKGDH activity was assayed 24 H later. *p<0.1 relative to vehicle; †p<0.05 relative to vehicle. N=5/group.
Rat pups were injected intraperitoneally (I.P.) with αT or γT in an olive oil vehicle every other day for 30 days beginning 2 days after birth; control animals received vehicle only. […] A total of 15 mg tocopherol was delivered to each animal over the 30 day period; animal weight at the end of the period was approximately 90 g for all three groups. One half of each animal group was injected with a septic dose of LPS (2.5 mg/kg, I.P). After 24 H, animals were killed and organs collected. αKGDH was assayed in heart tissue and tocopherols were measured by HPLC-ECD/PDA.

[6] = 100 mg/kg/day for 10 days; 29% FeCl3 patch; cited from earlier work
[7] = 400-800 IU/day, 18 months, cited from earlier work
[8] = upper vs lowest quintile of αT consumption, 87,425 nurses, 8 years; cited from earlier work
[9] = rat, in vivo
Method: Rat pups were injected intraperitoneally (I.P.) with αT or γT in an olive oil vehicle every other day for 30 days beginning 2 days after birth; control animals received vehicle only. Olive oil was chosen as a vehicle because of the low tocopherol content in this particular vegetable oil. […] One half of each animal group was injected with a septic dose of LPS (2.5 mg/kg, I.P). After 24 H, animals were killed and organs collected. αKGDH was assayed in heart tissue and tocopherols were measured by HPLC-ECD/PDA.

[10] = own supplementation, 100 mg/kg/day, 10 days; cited from earlier work
[11] = cited from earlier work
[12] = test system: platelets; conditions: cited from earlier work
[13] = test system: αKGDH; test: αKGDH protection against SIN-1 nitrative stress in isolated mitochondria in vitro; format: biochemical, rat; conditions: 400 μM SIN-1, one hour
Method: FIG. 3 is a graph showing rat brain mitochondria exposed to 0.4 mM SIN-1 for 1 H after addition of tocopherol. (•)α-tocopherol; (▪)γ-tocopherol. The scale bars labeled [α]norm and [Y]norm indicate the normal endogenous quantities of α-tocopherol and γ-tocopherol, respectively, in human brain.
αKGDH is a rate-limiting enzyme of mitochondrial energy production which is diminished in conditions of vascular ischemia (53-58); augmentation of the enzyme with α-ketoglutarate has been found beneficial and α-ketoglutarate is now included as a component in cardioplegia fluid to improve recovery after heart surgery (59). We undertook to determine whether γT protects αKGDH against nitrative stress in vitro. Mitochondria were isolated from adult rat brain then sonicated briefly in the presence of either αT or γT, or an ethanol vehicle. Mitochondria were then exposed to SIN-1, which generates NO and superoxide simultaneously at a known rate (7). Combination of NO and superoxide yields ONOO^−. in situ (discussed above).

[14] = test system: ECV304 human endothelial cells; conditions: 10 μM α-T, 10 μM γ-T or 5 μM of each; 19 hours preincubation; 5 mM SIN-1; 24 hours
Method: Cultured ECV304 human endothelial cells were exposed to SIN-1 in the presence of 10 μM α-T, 10 μM γ-T or 5 μM of each (FIG. 5). Tocopherols were incubated with the cells for 19 hours prior to addition of SIN-1. Viability was assayed 24 hours later using a standard tetrazolium (MTT) reduction assay.

[15] = associated with a 40% increase in plasma αT; cited from earlier work
[16] = median intake 419 vs. 6.4 IU/day, 39,910 men; cited from earlier work
[17] = 400 IU/day natural αT, 4.5 years, 9541 subjects; cited from earlier work
[18] = 35,000 postmenopausal women, 7 years; supplements alone or with dietary intake; cited from earlier work

**Q.** For `Cc1c(C)c2c(c(C)c1O)CC[C@@](C)(CCC[C@H](C)CCC[C@H](C)CCCC(C)C)O2` [α-tocopherol, reference compound], which “increase of plasma levels of αT” value [1] is on record?
**A.** 300-400%

**Q.** What about the “effect on MI or mortality” value [2] of the same compound?
**A.** no effect

**Q.** And the plasma concentration ([3]; hypertensives, N = 7)?
**A.** 23.1 ± 12.2 μg/mL plasma

**Q.** What about the “plasma concentration normalized to triglyceride” value (“plasma concentration normalized” for short) ([3]; hypertensives, N = 7) of the same compound?
**A.** 21.9 ± 5.9 μg/mg triglyceride

**Q.** And the plasma concentration ([3]; population, N = 54)?
**A.** 18.3 ± 2.6 μg/mL plasma

**Q.** What about the “plasma concentration normalized” value ([3]; population, N = 54) of the same compound?
**A.** 34.2 ± 14.2 μg/mg triglyceride

**Q.** And the plasma concentration ([3]; smokers, N = 7)?
**A.** 24.9 ± 9.2 μg/mL plasma

**Q.** What about the “plasma concentration normalized” value ([3]; smokers, N = 7) of the same compound?
**A.** 21.5 ± 4.5 μg/mg triglyceride

**Q.** What about the “Platelet Aggregation (% maximum)” value ([4]; ADP 20 μM, Subject 1) of the same compound?
**A.** 85 % maximum

**Q.** And the “Platelet Aggregation (% maximum)” value ([4]; ADP 20 μM, Subject 2)?
**A.** 72 % maximum

**Q.** What about the “Platelet Aggregation (% maximum)” value ([4]; PMA 200 nM, Subject 1) of the same compound?
**A.** 74 % maximum

**Q.** And the “Platelet Aggregation (% maximum)” value ([4]; PMA 200 nM, Subject 2)?
**A.** 34 % maximum

**Q.** What about the “Platelet Aggregation (% maximum)” value ([4]; TRAP 20 μM, Subject 1) of the same compound?
**A.** 44 % maximum

**Q.** What about the “Platelet Aggregation (% maximum)” value ([4]; TRAP 20 μM, Subject 2) of the same compound?
**A.** 75 % maximum

**Q.** And the “increase of mean heart αKGDH activity” value [5]?
**A.** 40%

**Q.** And the “delay/increase of time to occlusive thrombus” value [6]?
**A.** 25%

**Q.** And the “reduction in nonfatal myocardial infarction” value ([7]; 2002 male smokers with CAD)?
**A.** 77%

**Q.** And the “increase in all-cause mortality” value [7]?
**A.** 29%

**Q.** What about the “diminished risk of coronary disease” value [8] of the same compound?
**A.** 34%

**Q.** And the “heart tissue tocopherol concentration, controls” value [9]?
**A.** 23±12 ng/mg protein

**Q.** And the “increase of plasma level above baseline” value [10]?
**A.** 2 fold

**Q.** What about the “increase of plasma αT” value ([11]; 50 IU/day supplementation) of the same compound?
**A.** 50%

**Q.** What about the “effect on death from hemorrhagic stroke” value ([11]; 50 IU/day, 5-8 years) of the same compound?
**A.** increases death from hemorrhagic stroke

**Q.** What about the “effect on total mortality of smokers” value ([11]; 50 IU/day, 5-8 years) of the same compound?
**A.** does not decrease total mortality

**Q.** What about the “concentration necessary to inhibit aggregation in vitro” value [12] of the same compound?
**A.** ~500 µM

**Q.** And the “concentration offering as much αKGDH protection as 50-100 nM γT” value [13]?
**A.** 1 to 10 µM

**Q.** What about the “tocopherol concentration of maximal αKGDH protection” value ([13]; rat brain mitochondria) of the same compound?
**A.** 1 µM

**Q.** And the “effect on SIN-1 toxicity (MTT viability)” value [14]?
**A.** no apparent effect

**Q.** And the “lower mortality rate (ischemic heart disease)” value [15]?
**A.** 84%

**Q.** And the “diminished risk of CAD” value [16]?
**A.** 39%

**Q.** And the “effect on primary or secondary cardiovascular outcomes or death” value [17]?
**A.** no effect

**Q.** What about the “benefit of supplements on cardiovascular death” value [18] of the same compound?
**A.** no benefit
